Tests used:
Soybean seed = experiment: 2020 Greenhouse Soybean Seed Treatment Trial; assay type: in vivo
Description: The base formulation used in greenhouse trials was an aqueous solution of L-theanine (20% by weight). The base formulation was further diluted with water as detailed for each trial. Soybean seed (n=32/treatment) was treated with an aqueous solution of L-theanine at a rate of 1.0 fl. oz. per hundredweight of soybean seed. The seeds were planted in commercial potting soil in 1-gallon pots. The plants were grown for 21 days before they were harvested.

Soybean plants = experiment: 2021 Greenhouse Soybean Trial (soil application); assay type: in vivo
Description: The base formulation used in greenhouse trials was an aqueous solution of L-theanine (20% by weight). The base formulation was further diluted with water as detailed for each trial. Soybean seeds (n=28/treatment) were planted in commercial potting soil in 1-gallon pots. Approximately 14 days after seedling emergence, an aqueous L-theanine solution was mixed into water at a rate of 0.2 mL per 1000 mL water. The resulting solution was applied to the soil of the pots at a rate of 50 mL per plant. Plants were grown for an additional 14 days then harvested.

[1] = over the untreated check, seed treatment
[2] = seed treatment 1.0 fl. oz. per hundredweight of seed, harvested after 21 days
[3] = 0.2 mL per 1000 mL water, 50 mL per plant, harvested 14 days later

CCNC(=O)CC[C@H](N)C(=O)O [L-theanine]
increase in biomass (Soybean seed; [1]): 0.43 g
increase in biomass, percent (Soybean seed; [1]): 8.0%
increase in root length (Soybean seed; [1]): 94.4 cm
increase in root length, percent (Soybean seed; [1]): 8.1%
increase in root tips (Soybean seed; [1]): 763.4
increase in root tips, percent (Soybean seed; [1]): 21.0%
Plant Biomass (Soybean seed; [2]): 5.80 a g
Root Length (Soybean seed; [2]): 1263.7 a cm
Root Tips (count) (Soybean seed; [2]): 4392.0 a count
Plant Biomass (Soybean plants; [3]): 7.44 a g
Root Length (Soybean plants; [3]): 1631.4 a cm
increase in root length (Soybean plants; above the untreated check): 66.4 cm
increase in root length, percent (Soybean plants; above the untreated check): 4.2%
increase in soybean biomass (Soybean plants; above the untreated check): 1.3 g
increase in soybean biomass, percent (Soybean plants; above the untreated check): 20.4%

From US20230172203A1, “PLANT METABOLISM PROMOTING COMPOSITIONS AND METHODS OF USE” (Panoptic Ag Solutions LLC, priority 2021, published 2023)
